Test results published in US20240066090A1, “COMPOSITION FOR PREVENTING, AMELIORATING, OR TREATING METABOLIC SYNDROMES INCLUDING OBESITY, DIABETES, HYPERLIPIDEMIA, AND FATTY LIVER” (NUTRACORE CO., LTD., priority 2019, published 2024).

Columns and labels:
HFD mice [1] = assay: Periovarian and abdominal wall fat pad thickness, adipocyte size and accumulated fat weight in HFD-supplied mice; format: in vivo, ICR mice; settings: test materials 200 mg/kg oral, Metformin 250 mg/kg, mean±SD for 8 mice
HFD mice [2] = assay: Body weight and total body/abdominal fat density (DEXA) in HFD-supplied mice; format: in vivo, ICR mice; settings: test materials 200 mg/kg, metformin 250 mg/kg
Procedure: Specifically, after acclimating total 200 6-week-old female ICR mice to a laboratory environment for 7 days, they were adapted to HFD (45% Kcal high fat diet) 1 week before the start of administration of the experimental substance, and then the experimental substance was administered, and in the normal control group, a general NFD (Normal pellet diet) was supplied by the same method.
As the experimental substance, the LB (lemon balm extract) and CS (corn silk extract) alone and 9 kinds of LB:CS complexes (LB:CS=1:1, 1:2, 1:4, 1:6, 1:8, 2:1, 4:1, 6:1 and 8:1 (g/g)) as described in Table 1 above were used. The administration dose of the experimental substance was equally set to 200 mg/kg in total based on the medicinal efficacy investigation research of the present inventors. The experimental substance was dissolved in sterile distilled water and orally administered.
In addition, the total body fat and abdominal fat density were measured using DEXA (live dual-energy x-ray absorptiometry) and the result was shown in FIG. 4.

CN(C)C(=N)N=C(N)N [Metformin]
Abdominal wall fat pads Adipocyte diameters (HFD mice [1]): 64.49 ± 13.74^ab μm
Abdominal wall fat pads Thickness (HFD mice [1]): 2.99 ± 0.49^fg mm
Periovarian fat pads Adipocyte diameters (HFD mice [1]): 48.12 ± 6.36^fg μm
Periovarian fat pads Thickness (HFD mice [1]): 2.83 ± 0.43^ab mm
Time after the start of administration at which a significant (p<0.01 or p<0.05) decrease of body weight and fat density compared to the HFD control group began (HFD mice [2]): 21 days
Body weight and fat density during the 84-day administration period, compared to the HFD control group (groups listed in order of effect) (HFD mice [2]; 84 days): significant (p<0.01) decrease
